Reference: US9102752B2, “Peptide vaccine for prevention and immunotherapy of dementia of the Alzheimer's type” (United Biomedical, Inc., priority 2013, dated 2015)

Columns and labels:
[1] = tested on: anti-Aβ antibodies in macaque antisera; assay: Specificity analysis (10-mer peptide ELISA) of antisera from Cynomolgus macaques; type: binding
[2] = tested on: anti-Aβ antibodies in sera of vaccinated patients; assay: Epitope mapping, competitive binding inhibition EIA with patient sera (10-mer peptides, IC50); set-up: species or system human; Epitope mapping, fine specificity analysis, serum of subject P210: unit not given here; settings: for Epitope mapping, fine specificity analysis, serum of subject P101: serum 16 wpi of vaccinated patient P101; for Epitope mapping, fine specificity analysis, serum of subject P102: serum 16 wpi of vaccinated patient P102; for Epitope mapping, fine specificity analysis, serum of subject P103: serum 16 wpi of vaccinated patient P103; for Epitope mapping, fine specificity analysis, serum of subject P104: serum 16 wpi of vaccinated patient P104; for Epitope mapping, fine specificity analysis, serum of subject P105: serum 16 wpi of vaccinated patient P105; for Epitope mapping, fine specificity analysis, serum of subject P106: serum 16 wpi of vaccinated patient P106; for Epitope mapping, fine specificity analysis, serum of subject P107: serum 16 wpi of vaccinated patient P107; for Epitope mapping, fine specificity analysis, serum of subject P108: serum 16 wpi of vaccinated patient P108; for Epitope mapping, fine specificity analysis, serum of subject P109: serum 16 wpi of vaccinated patient P109; for Epitope mapping, fine specificity analysis, serum of subject P201: serum 16 wpi of vaccinated patient P201; for Epitope mapping, fine specificity analysis, serum of subject P202: serum 16 wpi of vaccinated patient P202; for Epitope mapping, fine specificity analysis, serum of subject P203: serum 16 wpi of vaccinated patient P203; for Epitope mapping, fine specificity analysis, serum of subject P204: serum 16 wpi of vaccinated patient P204; for Epitope mapping, fine specificity analysis, serum of subject P205: serum 16 wpi of vaccinated patient P205; for Epitope mapping, fine specificity analysis, serum of subject P206: serum 16 wpi of vaccinated patient P206; for Epitope mapping, fine specificity analysis, serum of subject P207: serum 16 wpi of vaccinated patient P207; for Epitope mapping, fine specificity analysis, serum of subject P208: serum 16 wpi of vaccinated patient P208; for Epitope mapping, fine specificity analysis, serum of subject P209: serum 16 wpi of vaccinated patient P209; for Epitope mapping, fine specificity analysis, serum of subject P210: serum 16 wpi of vaccinated patient P210
[3] = antisera of macaques given UBI AD Vaccine 150 μg/dose, 9 WPI
[4] = antisera of macaques given UBI AD Vaccine 150 μg/dose, 15 WPI
[5] = antisera of macaques given UBI AD Vaccine 750 μg/dose, 9 WPI
[6] = antisera of macaques given UBI AD Vaccine 750 μg/dose, 15 WPI

Row | Substance | Reactivity of antisera with peptide (specificity analysis ELISA) [1, 3] | Reactivity of antisera with peptide (specificity analysis ELISA) [1, 4] | Reactivity of antisera with peptide (specificity analysis ELISA) [1, 5] | Reactivity of antisera with peptide (specificity analysis ELISA) [1, 6] | Epitope mapping, fine specificity analysis, serum of subject P101 [2] | Epitope mapping, fine specificity analysis, serum of subject P102 [2] | Epitope mapping, fine specificity analysis, serum of subject P103 [2] | Epitope mapping, fine specificity analysis, serum of subject P104 [2] | Epitope mapping, fine specificity analysis, serum of subject P105 [2] | Epitope mapping, fine specificity analysis, serum of subject P106 [2] | Epitope mapping, fine specificity analysis, serum of subject P107 [2] | Epitope mapping, fine specificity analysis, serum of subject P108 [2] | Epitope mapping, fine specificity analysis, serum of subject P109 [2] | Epitope mapping, fine specificity analysis, serum of subject P201 [2] | Epitope mapping, fine specificity analysis, serum of subject P202 [2] | Epitope mapping, fine specificity analysis, serum of subject P203 [2] | Epitope mapping, fine specificity analysis, serum of subject P204 [2] | Epitope mapping, fine specificity analysis, serum of subject P205 [2] | Epitope mapping, fine specificity analysis, serum of subject P206 [2] | Epitope mapping, fine specificity analysis, serum of subject P207 [2] | also measured
1 | 8 (TEEISEVKMD; PEPTIDE (1)..(10) Abeta -9-1 or APP 770(T663-D672); listed as Homo sapiens) [compound 8] | 0.075 | 0.084 | 0.061 | 0.078 | 0 | 0 | 0 | 0 | 0 | 0 | 0 | 0 | 0 | 0 | 0 | 0 | 0 | 0 | 0 | 0 | Epitope mapping, fine specificity analysis, serum of subject P208 [2]: 0; Epitope mapping, fine specificity analysis, serum of subject P209 [2]: 0; Epitope mapping, fine specificity analysis, serum of subject P210 [2]: 0
2 | 9 (EEISEVKMDA; PEPTIDE (1)..(10) Abeta -8-2 or APP 770(E664-A673); listed as Homo sapiens) [compound 9] | 0.082 | 0.092 | 0.081 | 0.076 | 0 | 0 | 0 | 0 | 0 | 0 | 0 | 0 | 0 | 0 | 0 | 0 | 0 | 0 | 0 | 0 | Epitope mapping, fine specificity analysis, serum of subject P208 [2]: 0; Epitope mapping, fine specificity analysis, serum of subject P209 [2]: 0; Epitope mapping, fine specificity analysis, serum of subject P210 [2]: 0
3 | 10 (EISEVKMDAE; PEPTIDE (1)..(10) Abeta -7-3 or APP 770(E665-E674); listed as Homo sapiens) [compound 10] | 0.060 | 0.056 | 0.064 | 0.053 | 0 | 0 | 0 | 0 | 0 | 0 | 0 | 0 | 0 | 0 | 0 | 0 | 0 | 0 | 0 | 0 | Epitope mapping, fine specificity analysis, serum of subject P208 [2]: 0; Epitope mapping, fine specificity analysis, serum of subject P209 [2]: 0; Epitope mapping, fine specificity analysis, serum of subject P210 [2]: 0
4 | 11 (ISEVKMDAEF; PEPTIDE (1)..(10) Abeta -6-4 or APP 770(I666-F675); listed as Homo sapiens) [compound 11] | 0.055 | 0.058 | 0.063 | 0.062 | 0 | 0 | 0 | 0 | 0 | 0 | 0 | 0 | 0 | 0 | 0 | 0 | 0 | 0 | 0 | 0 | Epitope mapping, fine specificity analysis, serum of subject P208 [2]: 0; Epitope mapping, fine specificity analysis, serum of subject P209 [2]: 0; Epitope mapping, fine specificity analysis, serum of subject P210 [2]: 0
5 | 12 (SEVKMDAEFR; PEPTIDE (1)..(10) Abeta -5-5 or APP 770(S667-R676); listed as Homo sapiens) [compound 12] | 0.056 | 0.053 | 0.054 | 0.050 | 10 | 0 | 0 | 0 | 0 | 0 | 0 | 0 | 0 | 0 | 0 | 0 | 0 | 0 | 0 | 0 | Epitope mapping, fine specificity analysis, serum of subject P208 [2]: 0; Epitope mapping, fine specificity analysis, serum of subject P209 [2]: 0; Epitope mapping, fine specificity analysis, serum of subject P210 [2]: 0
6 | 13 (EVKMDAEFRH; PROPEP (1)..(10) Abeta -4-6 or APP 770(E668-H677); listed as Homo sapiens) [compound 13] | 0.046 | 0.047 | 0.054 | 0.047 | 1 | 0 | 0 | 0 | 0 | 0 | 0 | 0 | 0 | 58 | 0 | 0 | 0 | 0 | 0 | 1 | Epitope mapping, fine specificity analysis, serum of subject P208 [2]: 0; Epitope mapping, fine specificity analysis, serum of subject P209 [2]: 0; Epitope mapping, fine specificity analysis, serum of subject P210 [2]: 0
7 | 14 (VKMDAEFRHD; PEPTIDE (1)..(10) Abeta -3-7 or APP 770(V669-D678); listed as Homo sapiens) [compound 14] | 0.068 | 0.053 | 0.061 | 0.054 | 31 | 0 | 0 | 0 | 0 | 0 | 0 | 0 | 0 | 0 | 0 | 0 | 1 | 0 | 0 | 0 | Epitope mapping, fine specificity analysis, serum of subject P208 [2]: 0; Epitope mapping, fine specificity analysis, serum of subject P209 [2]: 0; Epitope mapping, fine specificity analysis, serum of subject P210 [2]: 13
